US20100316529A1, “Anti-Microbial Systems and Methods” (priority 2001, published 2010)
Several values for one entry are separate records, joined by “and”; a condition that tells them apart may be missing. Equal entries are not always repeated.

Tests used:
Format in all cases: cell-based
Kleb. pnemoniae = test: EDTA salt dilution test, MIC/MBC; settings: two entries
Description: (§1) Protocol one: Broth dilutions:
(§2) Inoculate a 25 ml nutrient broth (Oxoid No2) in a sterile universal container with one of the following organisms; Pseudomonas aeruginosa, Proteus Mirabilis, E. coli, Klebsiella pneumoniae, Staph aureus, Coagulase negative staphylococci, Enterococcus faecalis or MRSA.
(§3) Incubate the broth at 37° C. overnight.
(§4) To make these concentrations put the EDTA needed for 10 mLs in only 9 mLs of broth in sterile universal containers, as this will be diluted further when the organisms are added.
(§5) Dilute the overnight broth cultures to 10^7 organisms/mL using more sterile nutrient broth.
(§6) Add 1 mL of this diluent to each of the EDTA series broths. This gives a final concentration of 10^6 organism/mL in the EDTA broths.
(§7) Incubate for 18 hours at 37° C.
(§8) Next day visually read the MIC's by observing the turbidity of the broths.
(§9) Plate out 1 uL of each dilution onto fresh blood agar plate and spread using a sterile plastic spreader.
(§10) Incubate overnight at 37° C.
(§11) Next day read the MBC's by performing colony counts.

E. coli = test: EDTA salt dilution test, MIC/MBC; settings: three entries
Description: as §1, §2, §3, §4, §5, §6, §7, §8, §9, §10, §11

Pseudomonas aeruginosa = test: EDTA salt dilution test, MIC/MBC; settings: two entries
Description: as §1, §2, §3, §4, §5, §6, §7, §8, §9, §10, §11

MRSA = test: EDTA salt dilution test, MIC/MBC; settings: five entries
Description: as §1, §2, §3, §4, §5, §6, §7, §8, §9, §10, §11

VRE = test: EDTA salt dilution test, MIC/MBC; settings: two entries
Description: as §1, §2, §3, §4, §5, §6, §7, §8, §9, §10, §11

S. capitis = test: EDTA salt dilution test, MIC/MBC; settings: two entries
Description: as §1, §2, §3, §4, §5, §6, §7, §8, §9, §10, §11

Pseudomonas sp. = test: EDTA salt dilution test, MIC/MBC
Description: as §1, §2, §3, §4, §5, §6, §7, §8, §9, §10, §11

Proteus mirabilis = test: EDTA salt dilution test, MIC/MBC; settings: two entries
Description: as §1, §2, §3, §4, §5, §6, §7, §8, §9, §10, §11

S. lentus = test: EDTA salt dilution test, MIC/MBC
Description: as §1, §2, §3, §4, §5, §6, §7, §8, §9, §10, §11

S. simulans = test: EDTA salt dilution test, MIC/MBC
Description: as §1, §2, §3, §4, §5, §6, §7, §8, §9, §10, §11

S. epidermidis = test: EDTA salt dilution test, MIC/MBC; settings: two entries
Description: as §1, §2, §3, §4, §5, §6, §7, §8, §9, §10, §11

Ent. faecalis = test: EDTA salt dilution test, MIC/MBC
Description: as §1, §2, §3, §4, §5, §6, §7, §8, §9, §10, §11

S. aureus = test: EDTA salt dilution test, MIC/MBC; settings: five entries
Description: as §1, §2, §3, §4, §5, §6, §7, §8, §9, §10, §11

S. xylosus = test: EDTA salt dilution test, MIC/MBC
Description: as §1, §2, §3, §4, §5, §6, §7, §8, §9, §10, §11

variety of microbes = test: Efficacy of disinfectant salts of EDTA against a number of microbes; settings: general statement
Description: The Applicant has tested the efficacy of a number of disinfectant salts of EDTA against a number of microbes.
as §1, §2, §3
Next day make up a series of nutrient broths containing a dilution of the appropriate EDTA as in the following list; 0 mg/mL, 0.25 mg/mL, 0.5 mg/mL, 1.0 mg/mL, 1.5 mg/mL, 2.0 mg/mL, 4.0 mg/mL, 6.0 mg/mL, 8.0 mg/mL, 10 mg/mL, 15 mg/mL, 20 mg/mL, 25 mg/mL, 30 mg/ml, 40 mg/mL, 50 mg/mL, 60 mg/mL, 70 mg/mL, 80 mg/mL, 90 mg/mL, 100 mg/mL.
as §4, §5, §6, §7
Next day visually read the MIC's by observing the turbidity of the broths. […]
as §11

Coryneform strait/amy = test: EDTA salt dilution test, MIC/MBC
C. lucitaniae = test: EDTA agar dilution method, yeasts, MIC/MBC; settings: Exhibit C
Text: (§12) Protocol 3: Agar dilutions.
Do this until all the media is used up.

C. parapsilosis = test: EDTA agar dilution method, yeasts, MIC/MBC; settings: Exhibit C
Description: (§13) The bactericidal effects were measured as the Minimum Bactericidal Concentration (MBC), while the inhibitory effects were measured as the Minimum Inhibitory Concentration (MIC). In each case, the concentration was measured as milligrams of the disinfectant salt per milliliter of water (mg/ml).
as §12
(§14) Prepare nutrient agar plates with increasing concentrations of EDTA, 0, 0.5, 1, 1.5, 2, 4, 6, 8, 10, 15, 20, 25, 30 mg/mL, using the following method. • Pour 300 mL distilled water into a sterile glass bottle. • Add the appropriate amount of EDTA. This is the concentration desired ×300, in grams. • Once the EDTA has fully dissolved, add 8.4 g of Nutrient agar powder (Oxoid). Mix thoroughly. • Do this for each concentration of EDTA required. […] Do this until all the media is used up. Label the plates with the concentration of EDTA they contain. • These plates can then be stored, until they are needed, in a 4° C. fridge. • Use an automatic plate inoculator to inoculate each plate with 21 organisms.

C. tropicalis = test: EDTA agar dilution method, yeasts, MIC/MBC; settings: Exhibit C
Description: as §13, §12, §14

C. guilliermondii = test: EDTA agar dilution method, yeasts, MIC/MBC; settings: Exhibit C
Description: as §13, §12, §14

C. albicans = test: EDTA agar dilution method, yeasts, MIC/MBC; settings: three entries, Exhibit C
Description: as §13, §12, §14

C. glabrata = test: EDTA agar dilution method, yeasts, MIC/MBC; settings: two entries, Exhibit C
Description: as §13, §12, §14

Proteus vulgaris = test: EDTA salt dilution test, MIC/MBC
Steno. maltophilia = test: EDTA salt dilution test, MIC/MBC
Kleb. ornitholytica = test: EDTA salt dilution test, MIC/MBC
Acinetobacter baumanii = test: EDTA salt dilution test, MIC/MBC; settings: two entries, Exhibit A2
Ent. cloacae = test: EDTA salt dilution test, MIC/MBC; settings: three entries
Ent. faeculm = test: EDTA salt dilution test, MIC/MBC
Kleb. oxytoca = test: EDTA salt dilution test, MIC/MBC
Cornyeform amycolatum = test: EDTA salt dilution test, MIC/MBC

## O=C([O-])CN(CCN(CC(=O)O)CC(=O)O)CC(=O)[O-].[K+].[K+] [Dipotassium EDTA]
Kleb. pnemoniae; Exhibit A1
  MBC, minimum concentration required to kill an entire population: 15000 µg/mL
Kleb. pnemoniae; Exhibit A2
  MIC, minimum concentration required to inhibit growth: 1500 µg/mL and 1000 µg/mL
E. coli; Exhibit A1
  MBC, minimum concentration required to kill an entire population: >15000 µg/mL and 15000 µg/mL
E. coli; Exhibit A2
  MIC, minimum concentration required to inhibit growth: 1000 µg/mL
Pseudomonas aeruginosa; Exhibit A1
  MBC, minimum concentration required to kill an entire population: >15000 µg/mL
Pseudomonas aeruginosa; Exhibit A2
  MIC, minimum concentration required to inhibit growth: 1000 µg/mL
MRSA; Exhibit A1
  MBC, minimum concentration required to kill an entire population: 6000 µg/mL and 10000 µg/mL and 8000 µg/mL
MRSA; Exhibit A2
  MIC, minimum concentration required to inhibit growth: 1000 µg/mL
VRE; Exhibit A1
  MBC, minimum concentration required to kill an entire population: 8000 µg/mL
VRE; Exhibit A2
  MIC, minimum concentration required to inhibit growth: <500 µg/mL and 1000 µg/mL
S. capitis; Exhibit A1
  MBC, minimum concentration required to kill an entire population: 8000 µg/mL and 10000 µg/mL
S. capitis; Exhibit A2
  MIC, minimum concentration required to inhibit growth: <500 µg/mL
Pseudomonas sp.; Exhibit A1
  MBC, minimum concentration required to kill an entire population: 15000 µg/mL
Pseudomonas sp.; Exhibit A2
  MIC, minimum concentration required to inhibit growth: 1000 µg/mL
Proteus mirabilis; Exhibit A1
  MBC, minimum concentration required to kill an entire population: >15000 µg/mL and 15000 µg/mL
Proteus mirabilis; Exhibit A2
  MIC, minimum concentration required to inhibit growth: <500 µg/mL
S. lentus; Exhibit A1
  MBC, minimum concentration required to kill an entire population: 10000 µg/mL
S. lentus; Exhibit A2
  MIC, minimum concentration required to inhibit growth: <500 µg/mL
S. simulans; Exhibit A1
  MBC, minimum concentration required to kill an entire population: 8000 µg/mL
S. simulans; Exhibit A2
  MIC, minimum concentration required to inhibit growth: <500 µg/mL
S. epidermidis; Exhibit A1
  MBC, minimum concentration required to kill an entire population: 8000 µg/mL
S. epidermidis; Exhibit A2
  MIC, minimum concentration required to inhibit growth: <500 µg/mL
Ent. faecalis; Exhibit A1
  MBC, minimum concentration required to kill an entire population: 15000 µg/mL
Ent. faecalis; Exhibit A2
  MIC, minimum concentration required to inhibit growth: 1000 µg/mL
S. aureus; Exhibit A1
  MBC, minimum concentration required to kill an entire population: 6000 µg/mL and 8000 µg/mL
S. aureus; Exhibit A2
  MIC, minimum concentration required to inhibit growth: 1000 µg/mL
S. xylosus; Exhibit A1
  MBC, minimum concentration required to kill an entire population: 6000 µg/mL
S. xylosus; Exhibit A2
  MIC, minimum concentration required to inhibit growth: <500 µg/mL
Variety of microbes
  anti-microbial (antifungal and antibacterial) properties compared with the disodium salt: superior to disodium EDTA
Coryneform strait/amy; Exhibit A1
  MBC, minimum concentration required to kill an entire population: <500 µg/mL
Coryneform strait/amy; Exhibit A2
  MIC, minimum concentration required to inhibit growth: <500 µg/mL
C. lucitaniae
  MIC's, Minimum Inhibitory Concentration: 500 µg/mL
C. parapsilosis
  MIC's, Minimum Inhibitory Concentration: 500 µg/mL
C. tropicalis
  MIC's, Minimum Inhibitory Concentration: 1000 µg/mL
C. guilliermondii
  MIC's, Minimum Inhibitory Concentration: 500 µg/mL
C. albicans
  MIC's, Minimum Inhibitory Concentration: 500 µg/mL
C. glabrata
  MIC's, Minimum Inhibitory Concentration: 500 µg/mL
Proteus vulgaris; Exhibit A1
  MBC, minimum concentration required to kill an entire population: >15000 µg/mL
Proteus vulgaris; Exhibit A2
  MIC, minimum concentration required to inhibit growth: 1000 µg/mL
Steno. maltophilia; Exhibit A1
  MBC, minimum concentration required to kill an entire population: 10000 µg/mL
Steno. maltophilia; Exhibit A2
  MIC, minimum concentration required to inhibit growth: <500 µg/mL
Kleb. ornitholytica; Exhibit A1
  MBC, minimum concentration required to kill an entire population: >15000 µg/mL
Kleb. ornitholytica; Exhibit A2
  MIC, minimum concentration required to inhibit growth: 1000 µg/mL
Acinetobacter baumanii
  MIC, minimum concentration required to inhibit growth: <500 µg/mL
Ent. cloacae; Exhibit A1
  MBC, minimum concentration required to kill an entire population: 15000 µg/mL and >15000 µg/mL
Ent. cloacae; Exhibit A2
  MIC, minimum concentration required to inhibit growth: 4000 µg/mL and 6000 µg/mL
Ent. faeculm; Ent. faecuim, Exhibit A2
  MIC, minimum concentration required to inhibit growth: <500 µg/mL
Ent. faeculm; Ent. faeculm, Exhibit A1
  MBC, minimum concentration required to kill an entire population: 8000 µg/mL
Kleb. oxytoca; Exhibit A1
  MBC, minimum concentration required to kill an entire population: 15000 µg/mL
Kleb. oxytoca; Exhibit A2
  MIC, minimum concentration required to inhibit growth: 1000 µg/mL
Cornyeform amycolatum; Exhibit A1
  MBC, minimum concentration required to kill an entire population: <500 µg/mL
Cornyeform amycolatum; Exhibit A2
  MIC, minimum concentration required to inhibit growth: <500 µg/mL
